# Measurements reported in ChEMBL document CHEMBL1201862, “PubChem BioAssay data set” (2004).
#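 Briefly, cells in 96-well plates were exposed to five compound concentrations for 48 h, and endpoints were estimated by linear interpolation. GI50: concentration for 50% inhibition of growth.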 The source made the active and inactive calls. Cut-off read from the data, not from the text of the source: active = GI50 up to about 1.1 µM and inactive = higher.
# Columns and labels:
# Experiment in all cases: inhibition of tumour cell growth, NCI panel, 48 h
# U-251 = system: U-251
# SK-OV-3 = system: SK-OV-3
# RXF 393 = system: RXF 393
# M14 = system: M14
# UACC-257 = system: UACC-257
# NCI-H460 = system: NCI-H460
# MDA-MB-231 = system: MDA-MB-231
# HL-60 = system: HL-60
# CAKI-1 = system: CAKI-1
# SF-539 = system: SF-539
# DU-145 = system: DU-145
# CCRF-CEM = system: CCRF-CEM
# KM12 = system: KM12
# SF-268 = system: SF-268
# OVCAR-5 = system: OVCAR-5
# HCT-116 = system: HCT-116
# IGROV-1 = system: IGROV-1
# SN12C = system: SN12C
# UO-31 = system: UO-31
# RPMI-8226 = system: RPMI-8226
Structure (SMILES),GI50 (U-251),GI50 (SK-OV-3),GI50 (RXF 393),GI50 (M14),GI50 (UACC-257),GI50 (NCI-H460),GI50 (MDA-MB-231),GI50 (HL-60),GI50 (CAKI-1),GI50 (SF-539),GI50 (DU-145),GI50 (CCRF-CEM),GI50 (KM12),GI50 (SF-268),GI50 (OVCAR-5),GI50 (HCT-116),GI50 (IGROV-1),GI50 (SN12C),GI50 (UO-31),GI50 (RPMI-8226)
CCCCCCCCC/C=C1/CC(CO)(COC(=O)CC(C(C)C)C(C)C)OC1=O (stereo not given),11.9 µM (inactive),17.4 µM (inactive),13.9 µM (inactive),2.39 µM (inactive),12.9 µM (inactive),3.1 µM (inactive),2.59 µM (inactive),0.271 µM (active),4.18 µM (inactive),10.2 µM (inactive),12.4 µM (inactive),5.35 µM (inactive),8.85 µM (inactive),11.3 µM (inactive),12.1 µM (inactive),13.2 µM (inactive),15.4 µM (inactive),2.42 µM (inactive),2.44 µM (inactive),
COc1cc2oc(=O)cc(C)c2c(OC)c1OC,> 100 µM (inactive),> 100 µM (inactive),,> 100 µM (inactive),> 100 µM (inactive),,> 100 µM (inactive),,,,> 100 µM (inactive),> 100 µM (inactive),> 100 µM (inactive),> 100 µM (inactive),> 100 µM (inactive),> 100 µM (inactive),> 100 µM (inactive),> 100 µM (inactive),38.7 µM (inactive),> 100 µM (inactive)
O=[N+]([O-])c1cc2[nH]nnc2c2nonc12,28.4 µM (inactive),46.8 µM (inactive),,22.4 µM (inactive),22.9 µM (inactive),35.1 µM (inactive),32.7 µM (inactive),5.45 µM (inactive),29.7 µM (inactive),22.8 µM (inactive),33.3 µM (inactive),14.4 µM (inactive),33 µM (inactive),59 µM (inactive),29 µM (inactive),20.5 µM (inactive),51.9 µM (inactive),41.5 µM (inactive),17.9 µM (inactive),24 µM (inactive)
CCCCN(CCCC)CCC(O)c1cc2c(Cl)cc(Cl)cc2c2cc(C(F)(F)F)ccc12 (stereo not given),14.4 µM (inactive),14 µM (inactive),,8.93 µM (inactive),14.5 µM (inactive),10.3 µM (inactive),2.52 µM (inactive),5.9 µM (inactive),12.2 µM (inactive),9.4 µM (inactive),10.3 µM (inactive),11.2 µM (inactive),,11.7 µM (inactive),12.9 µM (inactive),12.2 µM (inactive),12.7 µM (inactive),5.05 µM (inactive),4.2 µM (inactive),8.36 µM (inactive)
C/C=C1/CN2CCC34c5ccccc5N5C(=O)C(C6CC78c9ccccc9N9C(=O)C=CC(C%10CC7N6C/C%10=C/C)C98)=CC(C1CC23)C54 (stereo not given),5.92 µM (inactive),9.79 µM (inactive),1.73 µM (inactive),5.52 µM (inactive),5.62 µM (inactive),6.65 µM (inactive),2.32 µM (inactive),0.183 µM (active),8.71 µM (inactive),1.11 µM (active),7.71 µM (inactive),0.501 µM (active),9.55 µM (inactive),6.89 µM (inactive),10.2 µM (inactive),5.53 µM (inactive),4.43 µM (inactive),5.53 µM (inactive),2.84 µM (inactive),
CC(=O)/C=C1/C(=O)C(CC(C)C)=C1CC(C)C,> 100 µM (inactive),> 100 µM (inactive),> 100 µM (inactive),> 100 µM (inactive),> 100 µM (inactive),,> 100 µM (inactive),> 100 µM (inactive),> 100 µM (inactive),> 100 µM (inactive),> 100 µM (inactive),53.8 µM (inactive),> 100 µM (inactive),> 100 µM (inactive),> 100 µM (inactive),> 100 µM (inactive),> 100 µM (inactive),> 100 µM (inactive),> 100 µM (inactive),
CC1(C)CCC2(C(=O)OC3OC(CO)C(O)C(O)C3O)CCC3(CO)C(=CCC4C5(C)CC(O)C(O)C(C)(C(=O)OC6OC(CO)C(O)C(O)C6O)C5CCC43C)C2C1 (stereo not given),> 100 µM (inactive),> 100 µM (inactive),> 100 µM (inactive),> 100 µM (inactive),> 100 µM (inactive),> 100 µM (inactive),> 100 µM (inactive),39 µM (inactive),> 100 µM (inactive),> 100 µM (inactive),> 100 µM (inactive),,> 100 µM (inactive),> 100 µM (inactive),> 100 µM (inactive),> 100 µM (inactive),> 100 µM (inactive),> 100 µM (inactive),> 100 µM (inactive),
COc1cccc(-c2nc(-c3cnccn3)n(COCCO)n2)c1,> 100 µM (inactive),> 100 µM (inactive),> 100 µM (inactive),> 100 µM (inactive),> 100 µM (inactive),> 100 µM (inactive),> 100 µM (inactive),> 100 µM (inactive),,> 100 µM (inactive),> 100 µM (inactive),> 100 µM (inactive),> 100 µM (inactive),> 100 µM (inactive),> 100 µM (inactive),> 100 µM (inactive),> 100 µM (inactive),> 100 µM (inactive),> 100 µM (inactive),> 100 µM (inactive)
CC(=O)OCC1OC(On2ccccc2=S)C(OC(C)=O)C(OC(C)=O)C1OC(C)=O (stereo not given),> 100 µM (inactive),> 100 µM (inactive),> 100 µM (inactive),> 100 µM (inactive),> 100 µM (inactive),> 100 µM (inactive),> 100 µM (inactive),1.55 µM (inactive),> 100 µM (inactive),> 100 µM (inactive),> 100 µM (inactive),0.785 µM (active),> 100 µM (inactive),> 100 µM (inactive),> 100 µM (inactive),> 100 µM (inactive),> 100 µM (inactive),> 100 µM (inactive),> 100 µM (inactive),
CC(C)Oc1c(O)c2c3c(oc(=O)n3C=CC2c2ccccc2)c1OC(C)C (stereo not given),20.8 µM (inactive),> 100 µM (inactive),,20 µM (inactive),25.1 µM (inactive),14.7 µM (inactive),30.3 µM (inactive),27 µM (inactive),29.2 µM (inactive),19.7 µM (inactive),34 µM (inactive),,21.5 µM (inactive),,34.4 µM (inactive),28.8 µM (inactive),21.9 µM (inactive),36.5 µM (inactive),14.2 µM (inactive),
OC1(c2ccccc2)CSC2=Nc3ccccc3C3CCN1N23 (stereo not given),14.9 µM (inactive),32.7 µM (inactive),20.9 µM (inactive),21.9 µM (inactive),23.4 µM (inactive),13.4 µM (inactive),15.5 µM (inactive),30.1 µM (inactive),21.1 µM (inactive),16.9 µM (inactive),15.6 µM (inactive),26.2 µM (inactive),16.7 µM (inactive),21.7 µM (inactive),11.1 µM (inactive),29.3 µM (inactive),13.3 µM (inactive),23.5 µM (inactive),15.4 µM (inactive),
CCn1cc(C(=O)O)c(=O)c2cc(F)c(N3CCN(CN4C(=O)/C(=N\NC(=O)c5ccncc5)c5cc(Cl)ccc54)CC3)cc21,33 µM (inactive),24.9 µM (inactive),19.6 µM (inactive),54 µM (inactive),37.6 µM (inactive),52.4 µM (inactive),52.7 µM (inactive),15.8 µM (inactive),23.7 µM (inactive),24.7 µM (inactive),24 µM (inactive),,40.3 µM (inactive),61.4 µM (inactive),> 100 µM (inactive),58.6 µM (inactive),18.3 µM (inactive),69.5 µM (inactive),4.83 µM (inactive),
CCOC(=O)/C=C(\C(=O)OCC)n1ccc(=O)n(CC(=O)OCC)c1=O,6.25 µM (inactive),17.9 µM (inactive),1.26 µM (inactive),2.09 µM (inactive),11.6 µM (inactive),15.6 µM (inactive),6.12 µM (inactive),0.495 µM (active),0.638 µM (active),16.6 µM (inactive),17.3 µM (inactive),0.592 µM (active),15.1 µM (inactive),13.2 µM (inactive),4.95 µM (inactive),1.77 µM (inactive),6.82 µM (inactive),4.84 µM (inactive),6.73 µM (inactive),
Cc1ccc(C(=O)Nc2ccc(S(=O)(=O)O)c3cc(S(=O)(=O)O)cc(S(=O)(=O)O)c23)cc1NC(=O)Nc1cc(C(=O)Nc2ccc(S(=O)(=O)O)c3cc(S(=O)(=O)O)cc(S(=O)(=O)O)c23)ccc1C,> 87.5 µM (inactive),,,> 87.5 µM (inactive),> 87.5 µM (inactive),> 87.5 µM (inactive),> 87.5 µM (inactive),> 87.5 µM (inactive),> 87.5 µM (inactive),,> 87.5 µM (inactive),> 87.5 µM (inactive),,> 87.5 µM (inactive),> 87.5 µM (inactive),> 87.5 µM (inactive),> 87.5 µM (inactive),> 87.5 µM (inactive),> 87.5 µM (inactive),> 87.5 µM (inactive)
COC(=O)[C@]1(C)CCC[C@]2(C)[C@@H](CCC(=O)C(C)C)[C@]3(C=O)O[C@@H]3C[C@H]21,33.7 µM (inactive),35.6 µM (inactive),19 µM (inactive),32.1 µM (inactive),37.9 µM (inactive),> 100 µM (inactive),52 µM (inactive),40.1 µM (inactive),14.8 µM (inactive),74.6 µM (inactive),39.4 µM (inactive),32.2 µM (inactive),34.3 µM (inactive),44.1 µM (inactive),> 100 µM (inactive),21.7 µM (inactive),,30.6 µM (inactive),18.7 µM (inactive),
